Test results from patent US5654310A, “Triazolopyrimidones their preparation and use” (BASF Aktiengesellschaft, priority 1992, dated 1997).

Assays:
[1] = target: T1, NMDA (N-methyl-D-aspartate) receptor (Rattus norvegicus, UniProt P35439); test: Binding of ^3 H-5,7-dichlorokynurenic acid (displacement on rat cerebral membranes); conditions: rat cerebra membranes, pH 7.4, 30 minutes on ice
T1 construct: freshly removed rat cerebra were homogenized; from tissue; host or cells: rat cerebrum, washed membranes

AMPA receptor = test: Binding of ^3 H-AMPA (displacement on rat cerebral membranes); conditions: rat cerebra membranes, pH 7.1, 60 minutes on ice
Method: For this, the membrane material was treated in the presence of the compounds according to the invention with the radio-labeled substances ^3 H-2-amino-3-hydroxy-5-methyl-4-isoxazolepropionic acid (^3 H-AMPA) and ^3 H-5,7-dichlorocyanuric [sic] acid, which bind to specific receptors (AMPA and NMDA (N-methyl-D-aspartate) receptors respectively). Subsequently the radioactivity in the treated membranes was measured by scintillation counting. It was possible from the bound radioactivity to determine the amounts of bound 3H AMPa and ^3 H-5,7-dichlorokyanurenicacid, or the amounts of each of these radiolabeled substances displaced.
1. Binding of ^3 H-2-amino-3-hydroxy-5-methyl-4-isoxazolepropionic acid (^3 H-AMPA).
To prepare the membrane material, freshly removed rat cerebra were homogenized together with about 15 times the volume of a buffer solution A composed of 30 mM α,α,α-tris(hydroxymethyl)methylamine hydrochloride (TRIS-HCl) and 0.5 mM ethylenediaminetetraacetic acid (EDTA), pH 7.4, using an Ultra-TURRAX. The suspension was centrifuged at 48,000 g for 20 min. After removal of the supernatant liquid, the protein-containing membrane material present in the pellet was washed three times by suspension in buffer solution A and subsequent centrifugation at 48,000 g for 20 minutes each time. The membrane material was then suspended in 15 times the volume of buffer solution A and incubated at 37° C. for 30 minutes. Subsequently the protein material was washed twice by centrifugation and suspension and was stored at -70° C. until used.
For the binding test, the protein material was thawed at 37° C. and washed twice by centrifugation at 48,000 g (20 min) and subsequent suspension in a buffer solution B composed of 50 mM TRIS-HCl, 0.1M potassium thiocyanate and 2.5 mM calcium chloride, pH 7.1. […] The filtrate [sic] was subsequently washed with 5 ml of cold buffer solution B in order to separate bound and free ^3 H-AMPA from one another. After measurement of the radioactivity of the bound ^3 H-AMPA in the membrane material by scintillation counting, the KI was determined by regression analysis of the displacement plots.

Structure (SMILES) | Ki [1] | Ki (AMPA receptor)
O=C(O)c1nc2c3c(nc(=O)n2[nH]1)CCCC3 [Example 2, 7,8,9,10-Tetrahydro-1,2,4-triazolo[1,5-c]quinazolin-5-one-2-carboxylic acid] | 0.2 µM | –
O=C(NCc1ccccc1)c1nc2c3c([nH]c(=O)n2n1)CCCC3 [Example 3, 7,8,9,10-Tetrahydro-1,2,4-triazolo[1,5-c]quinazolin-5-one-2-carboxylic acid N-benzylolylamide] | 1.2 µM | 1.5 µM
O=C(O)c1nc2c3c([nH]c(=O)n2n1)CCC3 [Example 6] | 1.6 µM | –
CCOC(=O)c1nc2c3c([nH]c(=O)n2n1)CCCCC3 [Example 7] | 0.4 µM | –
O=C(O)c1nc2c3c([nH]c(=O)n2n1)CCCCC3 [Example 8] | 0.2 µM | –
CCOC(=O)c1nc2c3c([nH]c(=O)n2n1)-c1ccccc1CC3 [Example 9] | 0.65 µM | –
O=C(O)c1nc2c3c([nH]c(=O)n2n1)-c1ccccc1CC3 [Example 10] | 0.3 µM | 1.7 µM
O=C(O)CCc1nc2c3c([nH]c(=O)n2n1)-c1ccccc1CC3 [Example 11] | 0.1 µM | 1 µM

Second part, the molecule after the results:

Ki [1] | Ki (AMPA receptor) | Structure (SMILES)
1.6 µM | – | O=C(NCc1ccc(Cl)c(Cl)c1)c1nc2c3c([nH]c(=O)n2n1)CCCC3 [Example 12]
2 µM | – | O=C(NCc1ccc([N+](=O)[O-])cc1)c1nc2c3c([nH]c(=O)n2n1)CCCC3 [Example 15]
0.8 µM | – | O=C(O)c1nc2c3c([nH]c(=O)n2n1)CCSC3 [Example 18]
2.6 µM | 1.7 µM | CCOC(=O)c1nc2c3c([nH]c(=O)n2n1)CC1CCCCC1C3 (stereo not shown) [Example 21]
